Consider 2 compounds from US7662842B2, “Thiazolidinone amides, thiazolidine carboxylic acid amides, and serine amides, including polyamine conjugates thereof, as selective anti-cancer agents” (Ohio State Univesity Research Foundation, priority 2003, dated 2010).

The test system of one series is SKMEL-188 melanoma cells. Put plainly: Sulforhodamine B assay in melanoma cells, SKMEL-188. The class given is cell-based. To be noted: SK-MEL-188, 48 h, SRB assay, 48 h incubation; melanoma cell line. As to the method:
(§1) SKMEL-188 cells were cultured in Ham's F10 medium (Gibco Invitrogen, Inc., Grand Island, N.Y.) plus 5% fetal bovine serum (Cellgro Mediatech, Inc., Herndon, Va.) and 1% antibiotic/antimycotic mixture (Sigma-Aldrich, Inc., St. Louis, Mo.). WM-164 cells (gift of Dr. Meenhard Herlyn, Wistar Inst., Philadelphia, Pa.) and human dermal fibroblasts (Cascade Biologics, Inc., Portland, Oreg.) were cultured in DMEM medium (Cellgro Mediatech, Inc.) supplemented with 5% fetal bovine serum, 1% antibiotic.antimycotic mixture and bovine insulin ([…], Sigma-Aldrich, Inc.). Human dermal fibroblasts were used as a control to examine the effects of compounds on stromal environment. Thus, the effect of the various compounds on melanoma cells versus fibroblasts would document their potential selectivity.
(§2) Sulforhodamine B Assay: Cells were seeded into 96-well plates at 5000 cells/well. After 12 hours, media were changed and serial dilutions of compounds were added. Cells were incubated with each compound for 48 hours. Fresh media containing the test compound were changed ever 24 hours. Thereafter, total cell protein corresponding to cell numbers (both viable and non-viable cells) were measured using the sulforhodamine B (SRB) assay according to manufacturer's protocol (Sigma-Aldrich, Inc.) (Rubinstein et al., “Comparison of in vitro Anticancer Drug-screening Data Generated with a Tetrazolium Assay Versus a Protein Assay Against a Diverse Panel of Human Tumor Cell Lines,” J. Natl. Cancer Inst. 82:1113-1118 (1990); Dothager et al., “Synthesis and Identification of Small Molecules that Potently Induce Apoptosis in Melanoma Cells Through GI Cell Cycle Arrest,” J. Am. Chem. Soc. 127:8686-8696 (2005), each of which is hereby incorporated by reference in its entirety). Briefly, cells were fixed with trichloracetic acid, washed and incubated with sulforhodamine B for 30 minutes. After another wash, dye incorporated into the cells was solubilized and measured using a plate reader at 565 nm.
(§3) Statistical Analysis: Data is presented as mean±SEM (n=6-8). […] Statistical analyses were performed with Student's t-test (*p<0.05; **p<0.005).
(§4) DTIC and Taxol were assayed in the same way for comparison and served as internal quality controls in the different batches of assay. For comparison, the activities of 5R and 5S were measured.

The test system of a further series is WM-164 cells. The series can be described thus: Sulforhodamine B assay in melanoma cells, WM-164. To be noted: Homo sapiens, WM164, read-out: IC50 WM-164; SRB assay, 48 h incubation; melanoma cell line. The class given is cell-based. As to the method: as §1, §2, §3, §4
(In SRB staining, fixed cells bind dye roughly in proportion to their protein.)

The test system of the next series is human dermal fibroblasts. Put plainly: Sulforhodamine B assay, fibroblast control cells. It is filed as cell-based. Conditions: Homo sapiens, Fibroblast, 48 h, SRB assay, 48 h incubation. As to the method:
as §1, §2, §3, §4

A further series concerns LNCaP cells. The series can be described thus: DNA fragmentation by agarose gel electrophoresis. It is filed as cell-based, human. To be noted: treatment for 24 to […], 3-50 μM, FIGS. 4A-B. The procedure: In FIG. 4B, the dose and exposure time are indicated for compound 5 as follows: lane 1, 100 bp DNA marker; lane 2, 5 μM for 24 h; lane 3, 5 μM for 48 h; lane 4, 5 μM for 72 h; lane 5, 5 μM for 96 h; lane 6, 3 μM for 96 h; lane 7, 8 μM for 48 h; and lane 8, 8 μM for 72 h.

Series [1] deals with RH7777 rat hepatoma cells. The series can be described thus: SRB cytotoxicity assay, RH7777 control cell line. The class given is cell-based. To be noted: Rattus norvegicus, RH7777; SRB assay, 96 h exposure; control cell line.
The subject of series [2] is DU-145 human prostate cancer cells. The series can be described thus: SRB cytotoxicity assay, DU-145. It is filed as cell-based. Conditions: Homo sapiens, DU-145, read-out: IC50 DU-145, 96 h exposure, prostate cancer cell line.
Series [3] has as its system LNCaP human prostate cancer cells. The series can be described thus: SRB cytotoxicity assay, LNCaP. The class given is cell-based. Conditions: Homo sapiens, LNCaP, 96 h exposure, prostate cancer cell line.
The test system of series [4] is PPC-1 human prostate cancer cells. The series can be described thus: SRB cytotoxicity assay, PPC-1. It is filed as cell-based. To be noted: Homo sapiens, PPC-1, 96 h exposure, prostate cancer cell line.
The test system of series [5] is TSU-Pr1 human prostate cancer cells. The series can be described thus: SRB cytotoxicity assay, TSU-Pr1. The class given is cell-based. To be noted: Homo sapiens, TSU-Pr1, 96 h exposure, prostate cancer cell line.
The test system of series [6] is CaOv-3 human ovarian cancer cell line. Put plainly: SRB cytotoxicity assay, CaOv-3. It is filed as cell-based. The procedure: (§5) For in vitro cytotoxicity screening, 1000 to 5000 cells were plated into each well of 96-well plates depending on growth rate, and exposed to different concentrations of a test compound for 96 h in three to five replicates. All the compounds were dissolved in dimethyl sulfoxide at 5 to 20 mM, and diluted to desired concentrations in complete culture medium. Cell numbers at the end of the drug treatment were measured by the SRB assay (Gududuru et al., “Synthesis and Biological Evaluation of Novel Cytotoxic Phospholipids for Prostate Cancer,” Bioorg. Med. Chem. Lett. 14:4919-4923 (2004); Rubinstein et al., “Comparison of in vitro Anticancer-Drug-Screening Data Generated with a Tetrazolium Assay Versus a Protein Assay Against a Diverse Panel of Human Tumor Cell Lines,” J. Natl. Cancer Inst. 82:1113-1118 (1990), each of which is hereby incorporated by reference in its entirety). Briefly, the cells were fixed with 10% of trichloroacetic acid, stained with 0.4% SRB, and the absorbances at 540 nm was measured using a plate reader (DYNEX Technologies, Chantilly, Va.). […] A sandwich ELISA (Roche, Mannheim, Germany) utilizing monoclonal antibodies specific for DNA and histones was used to quantify degree of apoptosis induced by the analogs after 72 h exposure. This assay measures DNA-histone complexes (mono- and oligonucleosomes) released into cytoplasm from the nucleus during apoptosis. RH7777 cells were employed because of nonspecific cytotoxicity of compound 4 in receptor-negative cells as well as receptor-positive prostate cancer cells.
(§6) In vitro cytotoxicity assay was performed by the same sulforhodamine B (SRB) assay (described above). The compounds shown in Table 8 below where tested for activity against the breast cancer and ovarian cancer cell lines.

Series [7] relates to OVCAR-3 human ovarian cancer cell line. The series can be described thus: SRB cytotoxicity assay, OVCAR-3. The class given is cell-based. The procedure:
as §5, §6

For series [8], the system named is SKOv-3 human ovarian cancer cell line. The series can be described thus: SRB cytotoxicity assay, SKOv-3. The class given is cell-based. Conditions: SK-OV-3. As to the method: as §5, §6

On to `CCCCCCCCCCCCCCCCCCNC(=O)[C@@H]1CSC(c2ccccc2)N1.Cl` (mixture of isomers) [Compound 5, (2RS, 4R)-2-Phenylthiazolidine-4-carboxylic acid octadecylamide Hydrochloride], for which the concentration for half-maximal inhibition (IC50) in the series on SKMEL-188 melanoma cells was 39.6 µM; with WM-164 cells it was above 50 µM; with human dermal fibroblasts it was above 50 µM. In addition, the “DNA fragmentation (apoptosis) in LNCaP cells” value in the series with LNCaP cells is recorded as “induce cell apoptosis”.

In turn, `CCCCCCCCCCCCCCCCCCNC(=O)[C@@H]1CSC(c2ccc(OC)c(OC)c2)N1.Cl` (mixture of isomers) [Compound 16, (2RS, 4R)-2-(3,4-Dimethoxy-phenyl)-thiazolidine-4-carboxylic acid octadecylamide Hydrochloride] had a melting point of 103 °C. This compound yielded an IC50 in [1] of 10.3 µM. Further, the IC50 in series [2] is 4.5 µM. Besides, the half-maximal inhibitory concentration (IC50) in series [3] turned out to be 0.85 µM. This compound also returned a 50% inhibitory concentration (IC50) in series [4] of 0.58 µM. In [5], this compound had an IC50 of 2.4 µM. Besides, half-maximal inhibition in [6] (IC50) was put at 5.5 µM. Moreover, half-maximal inhibition in series [7] (IC50) was put at 1.2 µM. Also, in series [8], the IC50 came to 3.6 µM. Further, in the series on SKMEL-188 melanoma cells, the IC50 is 2.4 µM. Also, the IC50 with WM-164 cells amounted to 3.1 µM. The compound also gave an IC50 in the series on human dermal fibroblasts above 10 µM.

The IC50 is the point on the concentration scale where inhibition reaches its midpoint. As a reminder, the melting point is the temperature of the solid-liquid transition.
